Test results published in patent US11554182B2, “Macrocyclic complexes of alpha-emitting radionuclides and their use in targeted radiotherapy of cancer” (CORNELL UNIVERSITY, priority 2017, dated 2023).

Assay: In vivo biodistribution of ^225Ac complexes after intravenous injection
Parameters: species or system C57BL/6 mice
Procedure: In Vivo Biodistribution of ^225Ac Complexes of Macropa and DOTA. All experiments were approved by the Institutional Animal Care Committee (IACC) of the University of British Columbia and were performed in accordance with the Canadian Council on Animal Care Guidelines. A total of 9 female C57BL/6 mice (6-8 weeks old, 20-25 g) were used for the biodistribution study of each radiometal complex, n=3 for each time point.
Macropa (100 μL of a 1 mg/mL solution in NH4OAc) was diluted with 387 μL of NH4OAc (1 M, pH 7), and an aliquot (203 μL) of ^225Ac(NO3)3 (˜157 kBq) was then added; the pH of this solution was adjusted to 6.5-7 by the addition of 1 M NaOH (210 μL, trace metal grade). After 5 min at ambient temperature, the reaction solution was analyzed by TLC (0.4 M pH 4 sodium citrate as the eluent), which confirmed >95% radiochemical yield. The reaction was allowed to proceed overnight, and the radiochemical yield was again confirmed to be >95% the following morning. At this time, mice were anesthetized by 2% isoflurane, and approximately 100 μL (10-15 kBq) of the [^225Ac(macropa)]^+ complex were injected into the tail vein of each mouse. After injection, mice were allowed to recover and roam freely in their cages, and were euthanized by CO2 inhalation at 15 min, 1 h, or 5 h (n=3 at each time point) post-injection. Blood was collected by cardiac puncture and placed into an appropriate test tube for scintillation counting. Tissues collected included heart, liver, kidneys, lungs, small intestine, large intestine, brain, bladder, spleen, stomach, pancreas, bone, thyroid, tail, urine, and feces. Tissues were weighed and then counted with a calibrated gamma counter (Packard, Cobra II model 5002) using three energy windows: 60-120 keV (window A), 180-260 keV (window B), and 400-480 keV (window C). Counting was performed both immediately after sacrifice and after 7 days; counts were decay corrected from the time of injection and then converted to the percentage of injected dose (% ID) per gram of tissue (% ID/g). No differences were noted between the data; therefore, the biodistributions are reported using the data acquired immediately using window A.
The biodistribution studies of [^225Ac(DOTA)]^− and ^225Ac(NO3)3 were carried out as described above for [^225Ac(macropa)]^+, with the following modifications. [^225Ac(DOTA)]^− was prepared by adding ^225Ac(NO3)3 (338 μL, 1.1 MBq) to a solution of DOTA (100 μg, 20 mg/mL in H2O) in NH4OAc (467 μL, 0.15 M, pH 7). The pH of the solution was adjusted to 7 using NH4OAc (150 μL, 1 M, pH 7) and the solution was heated at 85° C. for 45 min. RCY>99% was confirmed by TLC as described above. [^225Ac(DOTA)]^− was diluted with saline to a final concentration of 0.05 MBq/100 μL, and 100 μL were injected into each mouse. ^225Ac(NO3)3 (˜58 μL, 0.4 MBq) was diluted and injected in the same manner as [^225Ac(DOTA)]^−. One mouse that was to be euthanized at the 5 h time point in the [^225Ac(DOTA)]^− study died shortly after injection. In the same manner, one mouse that was to be euthanized at the 1 h time point in the ^225Ac(NO3)3 study died.
The in vivo stability [^225Ac(macropa)]^+ was examined by comparing its biodistribution to those of ^225Ac(NO3)3 and [^225Ac(DOTA)]^−. C57BL/6 mice were injected via tail vein with 10-50 kBq of each radiometal complex and were sacrificed after 15 min, 1 h, or 5 h. The amount of ^225Ac retained in each organ was quantified by gamma counting and reported as the percent of injected dose per gram of tissue (% ID/g). The results of these studies are compiled in Tables 1-3. Inadequate stability of an ^225Ac complex leading to the loss of radioisotope in vivo is manifested by the accumulation of ^225Ac in the liver, spleen, and bone of mice.^[11,12,32] […] The biodistribution profile of [^225Ac(macropa)]^+ (FIG. 3B) differs markedly from that of ^225Ac(NO3)3. […]

[1] = 15 min after i.v. injection, energy window A (60-120 keV)
[2] = 15 min after i.v. injection, energy window B (180-260 keV)
[3] = 15 min after i.v. injection, energy window C (400-480 keV)
[4] = 1 h after i.v. injection, energy window A (60-120 keV)
[5] = 1 h after i.v. injection, energy window B (180-260 keV)

O=C([O-])c1cccc(CN2CCOCCOCCN(Cc3cccc(C(=O)[O-])n3)CCOCCOCC2)n1.[225Ac+3] [[^225Ac(macropa)]^+]
% ID/g in bladder [1]: 46.74 % ID/g
% ID/g in blood [1]: 5.11 % ID/g
% ID/g in bone (femur + joint) [1]: 2.52 % ID/g
% ID/g in brain [1]: 0.26 % ID/g
% ID/g in feces [1]: 0.91 % ID/g
% ID/g in heart [1]: 2.19 % ID/g
% ID/g in kidneys [1]: 27.55 % ID/g
% ID/g in large intestines [1]: 2.40 % ID/g
% ID/g in liver [1]: 2.28 % ID/g
% ID/g in lungs [1]: 5.98 % ID/g
% ID/g in pancreas [1]: 1.46 % ID/g
% ID/g in small intestines [1]: 2.64 % ID/g
% ID/g in spleen [1]: 2.52 % ID/g
% ID/g in stomach [1]: 2.97 % ID/g
% ID/g in tail [1]: 8.84 % ID/g
% ID/g in thyroids [1]: 28.23 % ID/g
% ID/g in urine [1]: 1378.82 % ID/g
% ID/g in bladder [2]: 47.64 % ID/g
% ID/g in blood [2]: 5.23 % ID/g
% ID/g in bone (femur + joint) [2]: 2.69 % ID/g
% ID/g in brain [2]: 0.23 % ID/g
% ID/g in feces [2]: 1.04 % ID/g
% ID/g in heart [2]: 2.39 % ID/g
% ID/g in kidneys [2]: 27.86 % ID/g
% ID/g in large intestines [2]: 2.53 % ID/g
% ID/g in liver [2]: 2.17 % ID/g
% ID/g in lungs [2]: 5.83 % ID/g
% ID/g in pancreas [2]: 1.63 % ID/g
% ID/g in small intestines [2]: 2.59 % ID/g
% ID/g in spleen [2]: 2.55 % ID/g
% ID/g in stomach [2]: 3.29 % ID/g
% ID/g in tail [2]: 9.39 % ID/g
% ID/g in thyroids [2]: −2.22 % ID/g
% ID/g in urine [2]: 1541.60 % ID/g
% ID/g in bladder [3]: 64.68 % ID/g
% ID/g in blood [3]: 6.49 % ID/g
% ID/g in bone (femur + joint) [3]: 3.74 % ID/g
% ID/g in brain [3]: 0.17 % ID/g
% ID/g in feces [3]: 1.26 % ID/g
% ID/g in heart [3]: 2.87 % ID/g
% ID/g in kidneys [3]: 33.46 % ID/g
% ID/g in large intestines [3]: 3.02 % ID/g
% ID/g in liver [3]: 2.72 % ID/g
% ID/g in lungs [3]: 7.55 % ID/g
% ID/g in pancreas [3]: 3.00 % ID/g
% ID/g in small intestines [3]: 3.46 % ID/g
% ID/g in spleen [3]: 3.79 % ID/g
% ID/g in stomach [3]: 3.45 % ID/g
% ID/g in tail [3]: 11.75 % ID/g
% ID/g in thyroids [3]: −6.46 % ID/g
% ID/g in urine [3]: 2387.66 % ID/g
% ID/g in bladder [4]: 6.23 % ID/g
% ID/g in blood [4]: 0.40 % ID/g
% ID/g in bone (femur + joint) [4]: 0.31 % ID/g
% ID/g in brain [4]: 0.12 % ID/g
% ID/g in feces [4]: 0.28 % ID/g
% ID/g in heart [4]: 0.31 % ID/g
% ID/g in kidneys [4]: 13.36 % ID/g
% ID/g in large intestines [4]: 0.36 % ID/g
% ID/g in liver [4]: 0.75 % ID/g
% ID/g in lungs [4]: 0.51 % ID/g
% ID/g in pancreas [4]: 0.19 % ID/g
% ID/g in small intestines [4]: 1.10 % ID/g
% ID/g in spleen [4]: 0.51 % ID/g
% ID/g in stomach [4]: 0.41 % ID/g
% ID/g in tail [4]: 1.82 % ID/g
% ID/g in thyroids [4]: 3.18 % ID/g
% ID/g in urine [4]: 489.11 % ID/g
% ID/g in bladder [5]: 5.92 % ID/g
% ID/g in blood [5]: 0.39 % ID/g
% ID/g in bone (femur + joint) [5]: 0.17 % ID/g
% ID/g in brain [5]: 0.12 % ID/g
% ID/g in feces [5]: 0.27 % ID/g
% ID/g in heart [5]: 0.20 % ID/g
% ID/g in kidneys [5]: 12.97 % ID/g
% ID/g in large intestines [5]: 0.22 % ID/g
% ID/g in liver [5]: 0.70 % ID/g
% ID/g in lungs [5]: 0.54 % ID/g
